This passage reports IC50 and IC90 results from ChEMBL document CHEMBL4483862, “Open-source discovery of chemical leads for next-generation chemoprotective antimalarials” (2018).

As usually defined, the IC50 is the concentration needed to halve the response being measured. The term IC90 denotes the concentration needed for an effect of 90%.

The subject of the test is Plasmodium berghei. As to the kind of experiment: Luciferase/luciferin-expressing antifolate-resistant parasites were used to infect a culture of HepG2 cells that were pre-incubated with compounds. Infected hepatocytes emit light due to the luciferase reaction. Assay results are presented as the percent inhibition of light emission compared to control. […]. The conditions noted are these: sporozoite; for IC50: read-out: LUCIFERASE INFECTION ASSAY - IC50; for IC90: read-out: LUCIFERASE INFECTION ASSAY - IC90. In kind it is functional.

On to `CCN(CC)C(=O)c1sc2nc(-c3ccccn3)nc(O)c2c1C`, for which the IC50 is > 10 µM and the IC90 is > 10 µM.
On to `C=CCn1c(C)cc(C2=NN=C(NC(C)(C)C)SC2)c1C`, for which the IC50 turned out to be 0.366 µM and the IC90 amounted to 0.38 µM.
The corresponding values for `Cc1ccc(C(C)C)c(OCc2ccc(-c3nnco3)cc2)c1` are > 10 µM and > 10 µM.
The corresponding values for `COc1cccc(C(=O)OCC(=O)c2c[nH]c3ccccc23)c1O` are > 10 µM and > 10 µM.
On the same counts, the results for `COc1cc(NC(=O)COC(=O)CNC(=O)C2CCCCC2)cc(OC)c1` are > 10 µM and > 10 µM.
As for `CCOc1cc(/C=C2\COc3ccccc3C2=O)ccc1OCC(=O)N(C)C`, the 50% inhibitory concentration (IC50) was > 10 µM and the IC90 was > 10 µM.
As to `CCc1ccc(CN(C)CC(O)COc2cccc3ccccc23)cc1` (stereo unspecified), the concentration for half-maximal inhibition (IC50) was > 10 µM and the IC90 was > 10 µM.
In the case of `CCc1nc(Sc2nnnn2-c2ccccc2)c2c3c(sc2n1)CCCC3`, the concentration for half-maximal inhibition (IC50) is > 10 µM and the IC90 was > 10 µM.
With `CCCn1nc(C(=O)N2CCCc3ccccc32)c2ccccc2c1=O`, the IC50 was > 10 µM and the IC90 was > 10 µM.
On to `COc1cc(C(=O)c2c(C)c(CCC#N)n3ccccc23)cc(OC)c1OC`, for which the half-inhibitory concentration (IC50) worked out at 2 µM and the IC90 was 6.92 µM.
Regarding `COc1cc2c(C#N)c(N3CCc4ccccc4C3)nc(N)c2c(N)n1`, the 50% inhibitory concentration (IC50) was > 10 µM and the 90% effect concentration (IC90) was > 10 µM.
Regarding `O=c1cc(CN2CCCCCC2)nc2sccn12`, the IC50 was found to be 1.12 µM and the IC90 came to 1.39 µM.
The corresponding values for `COCC(C)n1c(C)cc(C(=O)COC(=O)c2cccn2C)c1C` (stereo unspecified) are 1.82 µM and 6.18 µM.
On the same counts, the results for `CC(C)(c1ccc(O)cc1)c1ccc(Cl)cc1` are > 10 µM and > 10 µM.
The corresponding values for `CC1CCCC(NC(=O)CSc2nnc(O)n2Cc2ccccc2)C1C` (stereo unspecified) are > 10 µM and > 10 µM.
On to `COc1ccc(NC(=O)c2ccc(O)nc2)cc1S(=O)(=O)N1CCOCC1`, for which the IC50 was > 10 µM and the IC90 was > 10 µM.
As for `O=c1c2c(-c3ccccc3)csc2nc2c3ccccc3c(NCCO)nn12`, the IC50 is > 10 µM and the IC90 is > 10 µM.
Turning to `CCOC(=O)c1sc2c(c1C)C(c1ccccc1)C1C(=O)CC(C)(C)CC1=N2` (stereo unspecified), the IC50 stood at 1.87 µM and the IC90 came out at 4.4 µM.
The corresponding values for `CC(OC(=O)c1ccc2ncsc2c1)C(=O)N1CCCC1` (stereo unspecified) are > 10 µM and > 10 µM.
On the same counts, the results for `COc1ccc(/C=C/c2nc3cc(-c4nc5ccccc5[nH]4)ccc3s2)cc1` are 1.84 µM and 4.48 µM.
The corresponding values for `CC(C)(c1ccccc1)c1ccc(OCC(O)CN2CCC(C(N)=O)CC2)cc1` (stereo unspecified) are > 10 µM and > 10 µM.
Turning to `COc1cc(C(=O)OCc2c(C)cc(C(C)(C)C)cc2C)cc(OC)c1OC`, the IC50 was > 10 µM and the 90% effect concentration (IC90) was > 10 µM.
Consider `CCc1cccc(CC)c1NC(=O)COC(=O)c1[nH]c(C)c(C(C)=O)c1C`, for which the IC50 was > 10 µM and the IC90 is > 10 µM.
Take `COc1cc(C(=O)NCCN(C(C)C)C(C)C)cc(OC)c1C`: the IC50 is > 10 µM and the concentration for an effect of 90% (IC90) is > 10 µM.
Take `COc1ccc(-c2nc(NC(=O)c3cnc(C)cn3)sc2C)cc1`: the IC50 is > 10 µM and the IC90 is > 10 µM.
Consider `COc1ccccc1C(=O)N(c1ccc(F)cc1)c1nc2ccccc2s1`, for which the IC50 was > 10 µM and the IC90 was > 10 µM.
With `O=C(COC(=O)CCC1CCCC1)Nc1ncc(C(F)(F)F)cc1Cl`, the IC50 was > 10 µM and the IC90 is > 10 µM.
`CCn1c(-c2ccccc2)c(C(=O)COc2ccccc2OC)c2ccccc21`: the IC50 is > 10 µM and the IC90 was > 10 µM.
As to `CC1CCN(Cc2c(-c3ccccc3)n(C)c3ccccc23)CC1`, the IC50 was > 10 µM and the 90% effect concentration (IC90) is > 10 µM.
In the case of `Cc1cc(C(=O)COC(=O)C2=COCCO2)c(C)n1Cc1ccco1`, the IC50 is > 10 µM and the concentration for an effect of 90% (IC90) was > 10 µM.
On to `C=CCN1C(=O)C(O)(c2cnc(N)s2)c2ccccc21` (stereo unspecified), for which the half-inhibitory concentration (IC50) is > 10 µM and the IC90 is > 10 µM.
For `Cc1ccc(NC(=O)C(OC(=O)c2c(C)noc2C)c2ccccc2)cc1Cl` (stereo unspecified), the half-maximal inhibitory concentration (IC50) is > 10 µM and the concentration for an effect of 90% (IC90) was > 10 µM.
As to `Cc1ccc(C2(C(F)(F)F)NC(=O)c3ccc(OC(C)C)cc3O2)cc1` (stereo unspecified), the IC50 worked out at 3.99 µM and the concentration for an effect of 90% (IC90) was > 10 µM.
For `Cc1cc(C(=O)OCC(=O)N(CCC#N)c2ccc(F)cc2)c2ccccc2n1`, the IC50 was > 10 µM and the concentration for an effect of 90% (IC90) is > 10 µM.
For `CN(C)C(C(=O)c1ccccc1)C(c1ccc(F)cc1)c1ccc(F)cc1` (stereo unspecified), the IC50 is > 10 µM and the IC90 is > 10 µM.
`Cc1cc(C)c(-c2csc(NC(=O)Cc3ccccc3)n2)c(C)c1`: the 50% inhibitory concentration (IC50) stood at 2.81 µM and the 90% effect concentration (IC90) is 3.56 µM.
On to `c1ccc(-c2ncc(CSc3ncnc4sccc34)s2)cc1`, for which the IC50 is > 10 µM and the 90% effect concentration (IC90) was > 10 µM.
In the case of `O=C1N=C(NC2CCCCC2)S/C1=C\c1cccc(C(F)(F)F)c1`, the half-inhibitory concentration (IC50) is > 10 µM and the IC90 was > 10 µM.
In the case of `CNc1nc(CSc2ccc(Cl)cc2)nc2sc3c(c12)CCC3`, the IC50 is > 10 µM and the IC90 is > 10 µM.
For `Cc1nc(SCC(=O)c2cc(C)n(-c3ccccc3)c2C)c2ccsc2n1`, the IC50 is > 10 µM and the IC90 is > 10 µM.
Regarding `Cc1cc(C)n2cc(CN(C)Cc3ccccc3)nc2n1`, the concentration for half-maximal inhibition (IC50) is > 10 µM and the IC90 was > 10 µM.
Take `Cc1ccc(NCC(=O)c2ccc(-n3nncc3-c3ccccc3)cc2)cc1`: the IC50 is > 10 µM and the concentration for an effect of 90% (IC90) is > 10 µM.
For the molecule `COc1ccccc1-c1nc(CCl)cs1`, the IC50 is > 10 µM and the IC90 was > 10 µM.
On to `CCN(C(=O)c1ccccc1Br)c1nc2c(C)cccc2s1`, for which the IC50 is > 10 µM and the IC90 is > 10 µM.
In the case of `Cc1cc(C(=O)CSc2nc3ccccc3s2)c(C)n1CC1CCCO1` (stereo unspecified), the IC50 is > 10 µM and the IC90 is > 10 µM.
For `Cc1cc(C(=O)OCc2c(Cl)cccc2Cl)c(C)o1`, the 50% inhibitory concentration (IC50) is > 10 µM and the IC90 is > 10 µM.
As to `CCN(C(=O)COc1ccc(-c2ccccc2)cc1)c1cccc2ccccc12`, the IC50 was > 10 µM and the concentration for an effect of 90% (IC90) is > 10 µM.
Regarding `CCOC(=O)c1[nH]c2c(c1C)C(=O)/C(=C/c1ccc(Cl)cc1)CC2`, the concentration for half-maximal inhibition (IC50) was > 10 µM and the IC90 was > 10 µM.
In the case of `O=S(=O)(Oc1ccc2oc3ccccc3c2c1)c1ccccc1F`, the IC50 was > 10 µM and the IC90 was > 10 µM.
Regarding `O=C1Nc2ccccc2SC1c1c(-c2ccc(Cl)cc2)cc2ccccn12` (stereo unspecified), the IC50 was > 10 µM and the IC90 was > 10 µM.
`O=C(CCN1c2ccccc2Sc2ccccc21)Nc1ccc2ccccc2c1`: the concentration for half-maximal inhibition (IC50) was > 10 µM and the 90% effect concentration (IC90) was > 10 µM.
Turning to `COc1ccc(/C=C/c2nc3cc(C)c(C)cc3s2)c(OC)c1OC`, the IC50 was found to be 4.27 µM and the IC90 was found to be 8.68 µM.
The corresponding values for `CC(C)(C)c1ccc(/C=C2\CCc3c2nc2ccccc2c3C(=O)OCC#N)cc1` are > 10 µM and > 10 µM.
The corresponding values for `O=C1c2ccccc2S(=O)(=O)N1c1ccccc1F` are > 10 µM and > 10 µM.
On the same counts, the results for `O=C(Nc1nc(-c2ccc3c(c2)CCCC3)cs1)c1cnccn1` are > 10 µM and > 10 µM.
As to `Cc1noc(C)c1COC(=O)CC(c1ccccc1)c1ccccc1`, the IC50 is > 10 µM and the IC90 was > 10 µM.
As to `c1ccc(-n2nnnc2Sc2ncnc3sc4c(c23)CCC4)cc1`, the concentration for half-maximal inhibition (IC50) is > 10 µM and the IC90 is > 10 µM.
On to `Cc1cc(C(=O)CSC(c2ccccc2)c2ccccc2)c(C)n1C`, for which the IC50 is > 10 µM and the 90% effect concentration (IC90) was > 10 µM.
On to `COc1ccc(C2CC(CCc3c[nH]c4ccccc34)=NN2c2ccccc2)cc1` (stereo unspecified), for which the IC50 is 3.35 µM and the IC90 was found to be 3.8 µM.
The corresponding values for `CC1CCc2c(sc3ncnc(NCC(c4ccccc4)N(C)C)c23)C1` (stereo unspecified) are > 10 µM and > 10 µM.
Take `O=C(CCc1nc2ccccc2s1)OCCOc1ccccc1F`: the half-inhibitory concentration (IC50) is > 10 µM and the 90% effect concentration (IC90) was > 10 µM.
For `O=c1c2c(-c3ccccc3)csc2nc2c3ccccc3c(Cl)nn12`, the IC50 was > 10 µM and the IC90 was > 10 µM.
Consider `C[C@H](NC(N)=O)C(=O)OCC(=O)Nc1cccc(C#N)c1`, for which the IC50 is > 10 µM and the concentration for an effect of 90% (IC90) is > 10 µM.
In the case of `CCOc1ccc(S(=O)(=O)Nc2ccccc2C(=O)Nc2nnc[nH]2)cc1`, the half-inhibitory concentration (IC50) is > 10 µM and the IC90 was > 10 µM.
Turning to `Oc1cc2c(cc1CN1CCN(Cc3ccc4c(c3)OCO4)CC1)CCC2`, the IC50 is > 10 µM and the concentration for an effect of 90% (IC90) was > 10 µM.
Take `Cc1ccc(S(=O)(=O)NC(=O)c2ccc(Cl)nc2Cl)cc1`: the IC50 is > 10 µM and the IC90 is > 10 µM.
Regarding `COc1cccc(/C=C(\c2nc3ccccc3[nH]2)c2nc3ccccc3s2)c1`, the IC50 is > 10 µM and the 90% effect concentration (IC90) was > 10 µM.
Regarding `Cc1cc(C)c2c(c1)C(=O)/C(=C/c1ccc(N(C)CCC#N)cc1)CC2`, the IC50 is > 10 µM and the IC90 was > 10 µM.
On to `O=C(O)CSc1nc2ccccc2c(=O)n1-c1ccccc1Cl`, for which the IC50 was > 10 µM and the concentration for an effect of 90% (IC90) is > 10 µM.
Turning to `COc1ccc(C)cc1-n1c(=O)c2ccccc2n2c(SC)nnc12`, the concentration for half-maximal inhibition (IC50) was > 10 µM and the IC90 is > 10 µM.
Turning to `CC(C)c1ccccc1NC(=O)COC(=O)C(C)(C)Oc1ccc(Cl)cc1`, the IC50 is > 10 µM and the IC90 is > 10 µM.
On to `Cn1nnnc1Sc1ncnc2sc3c(c12)CCCC3`, for which the IC50 is > 10 µM and the concentration for an effect of 90% (IC90) is > 10 µM.
`O=C1N=C(NC2CCCC2)S/C1=C\c1ccc(Cl)cc1`: the 50% inhibitory concentration (IC50) is > 10 µM and the IC90 is > 10 µM.
